System: post-menopausal women
Experiment: Weekly frequency of moderate to severe VMS, dose-finding study
Format: in vivo
Conditions: for Difference with placebo, LS adjusted mean, absolute change in weekly frequency of moderate to severe VMS / Difference with placebo, LS adjusted mean, relative change in weekly frequency of moderate to severe VMS: 5 mg E4 vs placebo; for LS adjusted mean change from baseline in weekly frequency of moderate to severe VMS / LS adjusted mean relative change (%) from baseline in weekly frequency of moderate to severe VMS: 10 mg E4
Excerpt: To determine the Minimum Effective Dose (MED), firstly the selection criteria required that patients presented at least 7 moderate to severe VMS/day or at least 50 moderate to severe VMS/week in the week preceding randomization. Secondly, a placebo group was included in a double-blind fashion. Thirdly, the total patient number was such that statistical significance could be obtained between separate arms of the study. Fourthly, the absolute change from baseline in weekly frequency of moderate to severe VMS was taken into account. An analysis of covariance (ANCOVA) was performed based on the untransformed change in weekly frequency of moderate to severe VMS from baseline. Finally, the change in severity from baseline was evaluated. For this, the Severity Scoring System of VMS was documented by the subjects as follows: • a score of Mild (1) for a sensation of heat without sweating; • a score of Moderate (2) for a sensation of heat with sweating/the subject is able to continue activity; and • a score of Severe (3) for a sensation of heat with sweating/which causes cessation of activity.
Enrolment was approximately 18 months. Individual subject participation was up to 27 weeks: up to 6 weeks pre-screening and washout, up to 4 weeks screening and run-in period, up to 91 days (13 weeks) of E4/placebo treatment followed by 2 weeks (14 days) of progestin therapy and a Follow up visit 1 week after completion of progestin therapy in non-hysterectomised subjects only.
To define the minimum effective dose (MED) of the oral dose of E4 by evaluating changes in frequency and in severity of moderate to severe vasomotor symptoms (VMS).
This was a prospective, multicentre, randomised, placebo-controlled, double-blinded, dose-finding study.
Eligible subjects were hysterectomised and non-hysterectomised post-menopausal women aged 40 to 65 years, inclusive, presenting at least 7 moderate to severe hot flushes/day or at least 50 moderate to severe hot flushes/week.
The subjects have met all of the following inclusion criteria at the randomization visit. These criteria were assessed during the screening period: • 1. Women aged 40 to 65 years, inclusive, presenting at least 7 moderate to severe hot flushes/day or at least 50 moderate to severe hot flushes/week in the week preceding randomization. • 2. Body Mass Index (BMI) between 18.0 and 35.0 kg/m^2, inclusive. • 3. Post-menopausal status defined as levels of follicle stimulating hormone (FSH) >40 IU/L and: • amenorrhoea for at least 12 consecutive months or, • amenorrhoea for at least 6 months with estradiol (E2)<20 pg/mL or, • at least 6 weeks post-surgical bilateral oophorectomy with or without hysterectomy with a copy of the pathology report or a statement on letterhead from the subject's physician documenting both ovaries were removed is required. • 4. For non-hysterectomised women: intact uterus with bi-layer endometrial thickness […] on TVUS. • 5. Negative pregnancy test. • 6. Good physical and mental health, in the judgement of the Principal Investigator (PI), on the basis of medical, surgical and gynaecological history, physical examination, gynaecological examination, clinical laboratory, and vital signs. • 7. Subject has provided signed and dated written informed consent before admission to the study. • 8. Subject is able to understand and comply with the protocol requirements, instructions, and protocol-stated restrictions. Exclusion Criteria:
All treatments (Estetrol, hereinafter, E4, [2.5 mg, 5 mg, 10 mg, 15 mg] capsule) were administered once daily (QD) per os for at least 12 consecutive weeks until the last biological assessments (Day 91 maximum) had been performed.
In order to analyse the data recorded in this study, treatment groups have been compared using an ANCOVA (analysis of covariance) with respect to the change in weekly frequency of moderate to severe VMS from baseline to weeks 4 and 12. […]

[1] = week 4, ANCOVA with study centre
[2] = week 12, ANCOVA with study centre

**Q.** What does the source list for `C[C@]12CC[C@@H]3c4ccc(O)cc4CC[C@H]3[C@@H]1[C@@H](O)[C@@H](O)[C@@H]2O` [E4, 1,3,5 (10)-estratrien-3,15alpha,16alpha,17beta-tetrol]?
**A.** Relative change (% from baseline) in weekly frequency of moderate to severe VMS, mean (5 mg E4 QD per os, week 2): −33%; Mean change from baseline in weekly frequency of moderate to severe VMS (5 mg E4 QD per os, week 3): −24.38; Relative change (% from baseline) in weekly frequency of moderate to severe VMS, mean (5 mg E4 QD per os, week 3): −38%; Mean change from baseline in weekly frequency of moderate to severe VMS (5 mg E4 QD per os, week 4): −27.57; Relative change (% from baseline) in weekly frequency of moderate to severe VMS, mean (5 mg E4 QD per os, week 4): −43%; Mean change from baseline in weekly frequency of moderate to severe VMS (5 mg E4 QD per os, week 5): −30.70; Relative change (% from baseline) in weekly frequency of moderate to severe VMS, mean (5 mg E4 QD per os, week 5): −47%; Mean change from baseline in weekly frequency of moderate to severe VMS (5 mg E4 QD per os, week 6): −38.02; Relative change (% from baseline) in weekly frequency of moderate to severe VMS, mean (5 mg E4 QD per os, week 6): −57%; Mean change from baseline in weekly frequency of moderate to severe VMS (5 mg E4 QD per os, week 7): −38.23; Relative change (% from baseline) in weekly frequency of moderate to severe VMS, mean (5 mg E4 QD per os, week 7): −57%; Mean change from baseline in weekly frequency of moderate to severe VMS (5 mg E4 QD per os, week 8): −38.55; Relative change (% from baseline) in weekly frequency of moderate to severe VMS, mean (5 mg E4 QD per os, week 8): −57%; Mean change from baseline in weekly frequency of moderate to severe VMS (5 mg E4 QD per os, week 9): −39.34; Relative change (% from baseline) in weekly frequency of moderate to severe VMS, mean (5 mg E4 QD per os, week 9): −59%; Mean change from baseline in weekly frequency of moderate to severe VMS (5 mg E4 QD per os, week 10): −39.83; Relative change (% from baseline) in weekly frequency of moderate to severe VMS, mean (5 mg E4 QD per os, week 10): −60%; Mean change from baseline in weekly frequency of moderate to severe VMS (5 mg E4 QD per os, week 11): −41.46; Relative change (% from baseline) in weekly frequency of moderate to severe VMS, mean (5 mg E4 QD per os, week 11): −63%; Mean change from baseline in weekly frequency of moderate to severe VMS (5 mg E4 QD per os, week 12): −40.60; Relative change (% from baseline) in weekly frequency of moderate to severe VMS, mean (5 mg E4 QD per os, week 12): −62%; Difference with placebo, LS adjusted mean, absolute change in weekly frequency of moderate to severe VMS [1]: 6.359; Difference with placebo, LS adjusted mean, relative change in weekly frequency of moderate to severe VMS [1]: 0.06833; Difference with placebo, LS adjusted mean, absolute change in weekly frequency of moderate to severe VMS (week 4, without site effect): 5.781; Difference with placebo, LS adjusted mean, relative change in weekly frequency of moderate to severe VMS (week 4, without site effect): 0.05854; Difference with placebo, LS adjusted mean, absolute change in weekly frequency of moderate to severe VMS [2]: 3.054; Difference with placebo, LS adjusted mean, relative change in weekly frequency of moderate to severe VMS [2]: 0.03978; Difference with placebo, LS adjusted mean, absolute change in weekly frequency of moderate to severe VMS (week 12, without site effect): 2.918; Difference with placebo, LS adjusted mean, relative change in weekly frequency of moderate to severe VMS (week 12, without site effect): 0.03671; LS adjusted mean change from baseline in weekly frequency of moderate to severe VMS [1]: −35.37; LS adjusted mean relative change (%) from baseline in weekly frequency of moderate to severe VMS [1]: -54.5%; LS adjusted mean change from baseline in weekly frequency of moderate to severe VMS (week 4, without site effect): −35.87; LS adjusted mean relative change (%) from baseline in weekly frequency of moderate to severe VMS (week 4, without site effect): -55.5%; LS adjusted mean change from baseline in weekly frequency of moderate to severe VMS [2]: −45.84; LS adjusted mean relative change (%) from baseline in weekly frequency of moderate to severe VMS [2]: -70%; LS adjusted mean change from baseline in weekly frequency of moderate to severe VMS (week 12, without site effect): −46.53; LS adjusted mean relative change (%) from baseline in weekly frequency of moderate to severe VMS (week 12, without site effect): -71.7%; Mean change from baseline in weekly frequency of moderate to severe VMS (10 mg E4 QD per os, week 1): −13.37; Relative change (% from baseline) in weekly frequency of moderate to severe VMS, mean (10 mg E4 QD per os, week 1): −21%; Mean change from baseline in weekly frequency of moderate to severe VMS (10 mg E4 QD per os, week 2): −23.47; Relative change (% from baseline) in weekly frequency of moderate to severe VMS, mean (10 mg E4 QD per os, week 2): −37%; Mean change from baseline in weekly frequency of moderate to severe VMS (10 mg E4 QD per os, week 3): −31.34; Relative change (% from baseline) in weekly frequency of moderate to severe VMS, mean (10 mg E4 QD per os, week 3): −48%; Mean change from baseline in weekly frequency of moderate to severe VMS (10 mg E4 QD per os, week 4): −36.38; Relative change (% from baseline) in weekly frequency of moderate to severe VMS, mean (10 mg E4 QD per os, week 4): −55%; Mean change from baseline in weekly frequency of moderate to severe VMS (10 mg E4 QD per os, week 5): −39.07; Relative change (% from baseline) in weekly frequency of moderate to severe VMS, mean (10 mg E4 QD per os, week 5): −60%; Mean change from baseline in weekly frequency of moderate to severe VMS (10 mg E4 QD per os, week 6): −42.56; Relative change (% from baseline) in weekly frequency of moderate to severe VMS, mean (10 mg E4 QD per os, week 6): −65%; Mean change from baseline in weekly frequency of moderate to severe VMS (10 mg E4 QD per os, week 7): −43.30; Relative change (% from baseline) in weekly frequency of moderate to severe VMS, mean (10 mg E4 QD per os, week 7): −66%

Source: patent publication US11484539B2, “Compounds and their uses for alleviating menopause-associated symptoms” (Estetra SPRL, priority 2018, dated 2022)
